Reference: patent US12364690B2, “Therapeutic agent for bile duct cancer” (NATIONAL CANCER CENTER, priority 2015, dated 2025)
Read-outs that look alike come from different tables or passages of the source.

How the values were obtained:
[1] = target: NIH3T3 cells transfected with FGFR2-KCTD1 (Homo sapiens, UniProt P21802); settings: final concentration 0.2 μM; soft agar; FIG. 5 and FIG. 6
Description: (§1) Using the following apparatus, the activity of FGFR inhibitors on the transformation capacity of FGFR2 fusion polypeptide was evaluated.

[2] = target: NIH3T3 cell transfected with FGFR2-BICC1 type2 (Homo sapiens, UniProt P21802, DEL126-151/R152G)
Sequence of NIH3T3 cell transfected with FGFR2-BICC1 type2 (P21802 with tags, fused parts or gaps isoform P21802-22 DEL37-62/R63G): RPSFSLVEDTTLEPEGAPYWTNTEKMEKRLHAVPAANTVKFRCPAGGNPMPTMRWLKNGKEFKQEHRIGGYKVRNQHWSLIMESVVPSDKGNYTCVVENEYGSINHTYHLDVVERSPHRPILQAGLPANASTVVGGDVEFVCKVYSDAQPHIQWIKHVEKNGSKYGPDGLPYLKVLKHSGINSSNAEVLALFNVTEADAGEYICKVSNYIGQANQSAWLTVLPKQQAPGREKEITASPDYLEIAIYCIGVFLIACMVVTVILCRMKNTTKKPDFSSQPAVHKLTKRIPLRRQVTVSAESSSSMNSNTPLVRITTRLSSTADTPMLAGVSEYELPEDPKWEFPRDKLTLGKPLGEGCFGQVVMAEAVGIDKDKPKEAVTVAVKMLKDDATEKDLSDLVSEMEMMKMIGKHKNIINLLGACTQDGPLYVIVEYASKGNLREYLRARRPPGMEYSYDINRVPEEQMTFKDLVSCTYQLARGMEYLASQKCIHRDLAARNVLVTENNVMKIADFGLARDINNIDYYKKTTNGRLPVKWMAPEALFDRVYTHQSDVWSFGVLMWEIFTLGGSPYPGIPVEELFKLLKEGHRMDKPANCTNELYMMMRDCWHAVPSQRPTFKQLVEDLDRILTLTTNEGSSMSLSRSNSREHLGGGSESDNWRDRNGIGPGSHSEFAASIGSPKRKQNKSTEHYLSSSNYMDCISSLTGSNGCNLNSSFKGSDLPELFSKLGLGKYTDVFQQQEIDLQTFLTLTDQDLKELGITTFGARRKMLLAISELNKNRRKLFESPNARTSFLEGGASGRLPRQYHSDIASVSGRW
Description: as §1

[3] = target: NIH3T3 cells transfected with FGFR2-TXLNA (Homo sapiens, UniProt P21802, DEL126-151/R152G); settings: final concentration 0.2 μM; soft agar; FIG. 5 and FIG. 6
Sequence of NIH3T3 cells transfected with FGFR2-TXLNA (P21802 with tags, fused parts or gaps isoform P21802-22 DEL37-62/R63G): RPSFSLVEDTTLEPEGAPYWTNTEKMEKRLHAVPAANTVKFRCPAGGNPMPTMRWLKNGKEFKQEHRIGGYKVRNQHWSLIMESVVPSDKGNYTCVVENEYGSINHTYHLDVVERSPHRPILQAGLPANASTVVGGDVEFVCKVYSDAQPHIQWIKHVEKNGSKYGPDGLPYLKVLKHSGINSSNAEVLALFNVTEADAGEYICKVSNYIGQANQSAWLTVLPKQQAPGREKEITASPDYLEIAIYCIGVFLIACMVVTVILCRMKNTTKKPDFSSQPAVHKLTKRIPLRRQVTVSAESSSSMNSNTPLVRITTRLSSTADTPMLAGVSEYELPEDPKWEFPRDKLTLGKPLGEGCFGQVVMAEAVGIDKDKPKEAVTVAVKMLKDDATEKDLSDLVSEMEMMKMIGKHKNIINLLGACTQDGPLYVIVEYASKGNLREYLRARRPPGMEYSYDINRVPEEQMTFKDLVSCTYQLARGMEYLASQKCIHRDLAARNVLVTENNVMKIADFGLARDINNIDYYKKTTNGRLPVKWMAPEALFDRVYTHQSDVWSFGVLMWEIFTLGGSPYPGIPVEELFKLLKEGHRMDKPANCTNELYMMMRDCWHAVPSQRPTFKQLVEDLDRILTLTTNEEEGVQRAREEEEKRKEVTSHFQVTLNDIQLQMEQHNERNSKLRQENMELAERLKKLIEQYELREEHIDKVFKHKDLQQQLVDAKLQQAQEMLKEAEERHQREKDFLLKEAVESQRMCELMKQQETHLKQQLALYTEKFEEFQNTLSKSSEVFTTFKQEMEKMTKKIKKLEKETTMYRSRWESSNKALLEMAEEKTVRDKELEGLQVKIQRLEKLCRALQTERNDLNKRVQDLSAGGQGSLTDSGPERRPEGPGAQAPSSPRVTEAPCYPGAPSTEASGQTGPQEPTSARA
Description: as §1

[4] = test system: NIH3T3 cell line transfected with the FGFR2 fusion gene; experiment: Immunoblot (Western blot) analysis of downstream signal of FGFR2 fusion gene; type: cell-based, mouse; settings: final concentration of FGFR inhibitor 0.2 μM or 0.5 μM, FIG. 3
Description: First, the wild-type FGFR2 fusion gene or KD mutant FGFR2 fusion gene was transfected into the mouse fibroblast cell line NIH3T3 using the retrovirus, and the obtained cell line was cultured in a liquid culture medium. The cultured cell line was subjected to serum starvation, and then treated with a culture medium containing an FGFR inhibitor before extracting the total proteins. Herein, the protein encoded by FGFR2-BICC1 type2, the protein encoded by FGFR2-TXLNA and the protein encoded by FGFR2-KCTD1 are shown in SEQ ID NOs: 6, 2 and 4, respectively.
Next, the NIH3T3 cell line transfected with the FGFR2 fusion gene was subjected to Western blot analysis after adding the FGFR inhibitor to the cell line (the final concentration of the FGFR inhibitor: 0.2 μM or 0.5 μM) and extracting the total proteins similarly.

[5] = Relative body weight in transplant model mice (safety of dosage); type: in vivo, mouse; settings: 6.25, 12.5, 25 and 50 mg/kg orally once a day; dosage judged as safe
Description: Based on the tumor volume on the first day of administration, the mice were grouped so that mean values of the tumor volume of the groups were nearly equal to each other. […]. The Compound A solution was continuously administered orally to the mice in the Compound A administration group once a day at a dosage of 20 mL/kg. On the other hand, only the solvent (water for injection) was similarly administered to the mice in the control group. The Administration was carried out to FGFR2-BICC1 type2 or FGFR2-KCTD1 transplant model mice for 7 days and to FGFR2-TXLNA transplant model mice for 11 days.
On the first day and the last day of the administration, body weight was measured for each mice in the control group and the Compound A administration group. The ratio of the body weight on the last day to the body weight on the first day (relative body weight: RBW) was calculated. When the RBW of the Compound A administration group/the RBW of the control group was 0.9 or more, the dosage was judged as safe. The corresponding dosage was 6.25, 12.5, 25 and 50 mg/kg.

Sequence of NIH3T3 cells transfected with FGFR2-KCTD1 (P21802 with tags, fused parts or gaps isoform P21802-22): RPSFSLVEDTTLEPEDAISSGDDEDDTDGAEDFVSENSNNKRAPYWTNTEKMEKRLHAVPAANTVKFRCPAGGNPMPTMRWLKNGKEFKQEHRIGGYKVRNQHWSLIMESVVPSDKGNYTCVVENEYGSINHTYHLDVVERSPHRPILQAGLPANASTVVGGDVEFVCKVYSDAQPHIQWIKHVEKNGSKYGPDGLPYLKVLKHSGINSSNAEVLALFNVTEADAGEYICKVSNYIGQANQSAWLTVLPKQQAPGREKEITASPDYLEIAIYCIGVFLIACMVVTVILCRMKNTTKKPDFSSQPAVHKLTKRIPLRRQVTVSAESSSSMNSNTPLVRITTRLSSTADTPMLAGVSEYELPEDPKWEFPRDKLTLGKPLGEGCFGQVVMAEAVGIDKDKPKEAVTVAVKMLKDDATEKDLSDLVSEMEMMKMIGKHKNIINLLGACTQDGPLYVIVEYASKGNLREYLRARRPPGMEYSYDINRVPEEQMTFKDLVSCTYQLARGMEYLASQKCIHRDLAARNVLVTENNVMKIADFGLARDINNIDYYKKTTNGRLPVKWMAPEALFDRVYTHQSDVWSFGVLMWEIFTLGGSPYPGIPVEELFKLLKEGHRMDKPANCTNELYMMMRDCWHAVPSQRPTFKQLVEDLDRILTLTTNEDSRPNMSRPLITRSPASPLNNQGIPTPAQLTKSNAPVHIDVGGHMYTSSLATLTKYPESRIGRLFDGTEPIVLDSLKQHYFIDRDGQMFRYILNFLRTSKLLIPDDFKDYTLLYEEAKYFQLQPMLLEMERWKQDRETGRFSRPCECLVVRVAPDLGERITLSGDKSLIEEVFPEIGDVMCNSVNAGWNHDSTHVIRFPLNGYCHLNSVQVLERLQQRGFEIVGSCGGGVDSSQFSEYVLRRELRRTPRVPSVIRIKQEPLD

| anchorage independent growth [1] | anchorage independent growth ([2]; final concentration 0.2 μM, soft agar, FIG. 5 and FIG. 6) | anchorage independent growth ([2]; final concentration 1.0 μM, FIG. 7) | anchorage independent growth [3] | Structure (SMILES) | phosphorylation of FGFR [4] | phosphorylation of MAPK [4] | RBW of the Compound A administration group/the RBW of the control group [5] |
| --- | --- | --- | --- | --- | --- | --- | --- |
| significantly suppressed | little suppressed | suppressed | significantly suppressed | CCN1CCN(c2ccc(Nc3cc(N(C)C(=O)Nc4c(Cl)c(OC)cc(OC)c4Cl)ncn3)cc2)CC1 [BGJ398] | suppressed | significantly suppressed | – |
| – | – | – | – | CNC(=O)n1ccc2cc(Oc3ccnc(NC(=O)c4ccc(C5CCN(CCO)CC5)cc4)c3)c(OCCOC)cc21 [Compound A, 5-((2-(4-(1-(2-hydroxyethyl)piperidin-4-yl)benzamide)pyridin-4-yl)oxy)-6-(2-methoxyethoxy)-N-methyl-1H-indole-1-carboxamide 1.5 succinate] | suppressed | significantly suppressed | ≥ 0.9 |
| – | – | – | – | CCN(CC)CCCCNc1ncc2cc(-c3cc(OC)cc(OC)c3)c(NC(=O)NC(C)(C)C)nc2n1 [PD173074] | suppressed | significantly suppressed | – |
